Assay: xn = mol fraction of the nth substance listed

CC(C)OCCO + CO
298.15 K, 101.33 kPa
Conditions | viscosity [mPa·s]
x1 = 0.012 | 0.569
x1 = 0.0276 | 0.602
x1 = 0.05 | 0.637
x1 = 0.0732 | 0.684
x1 = 0.1063 | 0.749
x1 = 0.1319 | 0.795
x1 = 0.1558 | 0.842
x1 = 0.1871 | 0.897
x1 = 0.2119 | 0.946
x1 = 0.2575 | 1.036
x1 = 0.2683 | 1.056
x1 = 0.3161 | 1.145
x1 = 0.3643 | 1.235
x1 = 0.412 | 1.324
x1 = 0.4685 | 1.415
x1 = 0.5152 | 1.485
x1 = 0.5447 | 1.529
x1 = 0.6149 | 1.624
x1 = 0.6869 | 1.719
x1 = 0.7416 | 1.789
x1 = 0.7775 | 1.832
x1 = 0.8335 | 1.912
x1 = 0.8955 | 1.975
x1 = 0.9189 | 2.003
x1 = 0.9415 | 2.032
x1 = 0.9701 | 2.064

COC(=O)c1ccccc1 + CO
viscosity [mPa·s], 101.33 kPa
Conditions | x1 = 0.0499 | x1 = 0.0999 | x1 = 0.2 | x1 = 0.3001 | x1 = 0.4001 | x1 = 0.4999 | x1 = 0.5999 | x1 = 0.65 | x1 = 0.8001 | x1 = 0.9001
293.15 K | 0.653 | 0.721 | 0.86 | 0.997 | 1.133 | 1.263 | 1.395 | 1.461 | 1.673 | 1.834
298.15 K | 0.608 | 0.67 | 0.796 | 0.918 | 1.041 | 1.156 | 1.273 | 1.331 | 1.518 | 1.66
303.15 K | 0.568 | 0.625 | 0.738 | 0.849 | 0.958 | 1.062 | 1.167 | 1.22 | 1.387 | 1.511
308.15 K | 0.531 | 0.584 | 0.686 | 0.786 | 0.886 | 0.98 | 1.075 | 1.122 | 1.272 | 1.385
313.15 K | 0.499 | 0.547 | 0.64 | 0.732 | 0.822 | 0.907 | 0.993 | 1.036 | 1.173 | 1.275

CCOCCOCCOCC + COC(=O)OC
viscosity [mPa·s], 101.33 kPa
Conditions | 298.15 K | 308.15 K | 318.15 K
x1 = 0.0109 | 0.604 | 0.532 | 0.48
x1 = 0.0541 | 0.641 | 0.563 | 0.502
x1 = 0.0935 | 0.677 | 0.593 | 0.523
x1 = 0.1383 | 0.718 | 0.624 | 0.546
x1 = 0.1877 | 0.76 | 0.654 | 0.571
x1 = 0.2422 | 0.808 | 0.689 | 0.604
x1 = 0.3409 | 0.886 | 0.752 | 0.651
x1 = 0.4435 | 0.959 | 0.811 | 0.697
x1 = 0.5274 | 1.021 | 0.855 | 0.727
x1 = 0.6085 | 1.072 | 0.894 | 0.761
x1 = 0.7154 | 1.136 | 0.942 | 0.798
x1 = 0.8183 | 1.189 | 0.986 | 0.831
x1 = 0.9068 | 1.229 | 1.019 | 0.857
x1 = 0.9643 | 1.258 | 1.037 | 0.872

c1ccc2c(c1)CCCC2 + COC(C)(C)C
303.15 K, 101 kPa
Conditions | viscosity [mPa·s]
x2 = 0.1289 | 1.534
x2 = 0.1851 | 1.432
x2 = 0.2839 | 1.253
x2 = 0.3506 | 1.136
x2 = 0.4458 | 0.983
x2 = 0.5017 | 0.903
x2 = 0.6257 | 0.737
x2 = 0.7392 | 0.606
x2 = 0.8539 | 0.486
x2 = 0.9246 | 0.37

COC(=O)c1ccccc1 + COCCO
viscosity [mPa·s], 101 kPa
Conditions | x2 = 0.0991 | x2 = 0.2001 | x2 = 0.3023 | x2 = 0.3992 | x2 = 0.4989 | x2 = 0.5981 | x2 = 0.699 | x2 = 0.7991 | x2 = 0.8983
298.15 K | 1.735 | 1.689 | 1.686 | 1.675 | 1.646 | 1.675 | 1.668 | 1.699 | 1.693
303.15 K | 1.571 | 1.523 | 1.524 | 1.511 | 1.478 | 1.508 | 1.5 | 1.525 | 1.522
308.15 K | 1.427 | 1.385 | 1.378 | 1.366 | 1.34 | 1.362 | 1.356 | 1.375 | 1.372

CCOC(=O)CCl + COc1ccccc1
viscosity [mPa·s], 101.3 kPa
Conditions | x1 = 0.1012 | x1 = 0.2027 | x1 = 0.3 | x1 = 0.3936 | x1 = 0.4982 | x1 = 0.6022 | x1 = 0.6954 | x1 = 0.7934 | x1 = 0.8919
298.15 K | 0.983 | 0.987 | 0.989 | 0.996 | 1.004 | 1.019 | 1.033 | 1.049 | 1.072
303.15 K | 0.915 | 0.916 | 0.918 | 0.925 | 0.932 | 0.945 | 0.958 | 0.975 | 0.993
308.15 K | 0.847 | 0.847 | 0.848 | 0.853 | 0.861 | 0.871 | 0.884 | 0.901 | 0.915

COC(=O)c1ccccc1 + COc1ccccc1
viscosity [mPa·s], 100 kPa
Conditions | x1 = 0.0898 | x1 = 0.1468 | x1 = 0.228 | x1 = 0.3145 | x1 = 0.4054 | x1 = 0.5056 | x1 = 0.6161 | x1 = 0.7316 | x1 = 0.8597
303.15 K | 0.974 | 1.038 | 1.101 | 1.187 | 1.234 | 1.307 | 1.391 | 1.48 | 1.572
308.15 K | 0.894 | 0.949 | 1.007 | 1.086 | 1.129 | 1.195 | 1.272 | 1.355 | 1.439
313.15 K | 0.8 | 0.85 | 0.902 | 0.972 | 1.012 | 1.074 | 1.144 | 1.22 | 1.301

COC(=O)c1ccccc1 + CS(C)=O
303.15 K, 101 kPa
Conditions | viscosity [mPa·s]
x1 = 0.1946 | 1.757
x1 = 0.2734 | 1.752
x1 = 0.3608 | 1.751
x1 = 0.4584 | 1.751
x1 = 0.5683 | 1.723
x1 = 0.6931 | 1.682

C[N+](C)(C)C.[OH-] + CS(C)=O
viscosity [mPa·s], 100 kPa
Conditions | 298.15 K | 303.15 K | 308.15 K | 313.15 K
x1 = 0.0177 | 2.05 | 1.87 | 1.73 | 1.63
x1 = 0.0538 | 2.18 | 2.01 | 1.87 | 1.77
x1 = 0.091 | 2.24 | 2.07 | 1.94 | 1.86
x1 = 0.1294 | 2.34 | 2.18 | 2.06 | 1.98
x1 = 0.1691 | 2.44 | 2.3 | 2.18 | 2.1
x1 = 0.2101 | 2.55 | 2.42 | 2.3 | 2.23
x1 = 0.2314 | 2.61 | 2.48 | 2.36 | 2.3
x1 = 0.2961 | 2.76 | 2.64 | 2.54 | 2.48
x1 = 0.3645 | 2.9 | 2.81 | 2.71 | 2.65
x1 = 0.4366 | 3.04 | 2.94 | 2.86 | 2.81
x1 = 0.4868 | 3.12 | 3.03 | 2.95 | 2.91
x1 = 0.5388 | 3.18 | 3.1 | 3.02 | 2.98
x1 = 0.6206 | 3.25 | 3.17 | 3.09 | 3.07
x1 = 0.7071 | 3.26 | 3.2 | 3.12 | 3.1
x1 = 0.7677 | 3.23 | 3.18 | 3.1 | 3.06
x1 = 0.8307 | 3.15 | 3.12 | 3.05 | 3.02
x1 = 0.8963 | 3.03 | 3.02 | 2.94 | 2.9
x1 = 0.9647 | 2.86 | 2.84 | 2.76 | 2.71

O=C(O)CC(=O)O + C[N+](C)(C)CCO.[Cl-]
viscosity [mPa·s]
Conditions | 293.15 K | 293.2 K | 298.15 K | 303.15 K | 303.2 K | 308.15 K | 313.15 K | 313.2 K | 318.15 K | 323.15 K
100 kPa, x2 = 0.5 | 2016 | – | 1389 | 982.9 | – | 710.7 | 524.5 | – | 393.9 | 301.2
101 kPa, x2 = 0.5 | 1651 | – | 1084 | 679.6 | – | 486.4 | 372.5 | – | 286.5 | 207.2
101.3 kPa, x2 = 0.502 | – | 1600 | – | – | 1029 | – | – | 615 | – | –

CCOC(=O)CCl + Cc1cc(C)cc(C)c1
viscosity [mPa·s], 101.3 kPa
Conditions | x1 = 0.1123 | x1 = 0.2035 | x1 = 0.2999 | x1 = 0.4019 | x1 = 0.4987 | x1 = 0.5997 | x1 = 0.6963 | x1 = 0.7974 | x1 = 0.8954
298.15 K | 0.693 | 0.712 | 0.745 | 0.775 | 0.811 | 0.853 | 0.902 | 0.964 | 1.023
303.15 K | 0.653 | 0.669 | 0.698 | 0.725 | 0.759 | 0.798 | 0.841 | 0.899 | 0.949
308.15 K | 0.612 | 0.627 | 0.652 | 0.677 | 0.708 | 0.741 | 0.779 | 0.829 | 0.874

CCCCOCCO + Cc1ccc(C)cc1
viscosity [mPa·s], 101 kPa
Conditions | 298.15 K | 308.15 K
x1 = 0.0541 | 0.566 | 0.647
x1 = 0.1518 | 0.625 | 0.725
x1 = 0.2496 | 0.695 | 0.817
x1 = 0.3502 | 0.784 | 0.933
x1 = 0.451 | 0.894 | 1.076
x1 = 0.5028 | 0.961 | 1.162
x1 = 0.5533 | 1.033 | 1.256
x1 = 0.6489 | 1.194 | 1.465
x1 = 0.7493 | 1.404 | 1.739
x1 = 0.8519 | 1.676 | 2.092
x1 = 0.9561 | 2.029 | 2.551

— the CheMixHub viscosity set
